Data set [1] relates to uterine hypertrophy induced by androstenedione. As to the kind of experiment: Activity in vivo: inhibition of uterine hypertrophy induced by androstenedione. Further details: species or system rat (Sprague-Dawley). Particulars: Rattus norvegicus, 96 h, immature female rats, androstenedione 30 mg/kg for 4 days, read-out: % inhibition to doses (μg/Kg); for inhibition in vivo at 0.01 mg/kg: dose 10 μg/Kg; for inhibition in vivo at 0.1 mg/kg: dose 100 μg/Kg; for inhibition in vivo at 1 mg/kg: dose 1000 μg/Kg; for inhibition in vivo at 0.001 mg/kg: dose 1 μg/Kg. How it is done: The activity in vivo of aromatase inhibition by compounds of formula (I) according to the invention has been tested according to the model established by Bharnagar et al. (1990).
In general, immature female rats of the Sprague-Dawley line of a weight ranging from 40 to 50 g have been treated with a dose of androstenedione at 30 mg/kg for 4 days, in the absence or in the presence of doses of various compounds of formula (I).
Four hours after administration of an aromatase inhibitor, the rats were sacrificed. Their uteruses were removed, cleared of adhering fat and conjunctive tissue, next the uteruses were weighed (wet weight). The dry weight of the uteruses was determined the following day after a step of drying for one night at 80° C.

For data set [2], the target named is aromatase (e) (UniProt O46512). It counts as biochemical. Particulars: value marked (e); read-out: Activity In vitro IC50(nM), (e).
Chain of aromatase (e) (O46512 whole entry): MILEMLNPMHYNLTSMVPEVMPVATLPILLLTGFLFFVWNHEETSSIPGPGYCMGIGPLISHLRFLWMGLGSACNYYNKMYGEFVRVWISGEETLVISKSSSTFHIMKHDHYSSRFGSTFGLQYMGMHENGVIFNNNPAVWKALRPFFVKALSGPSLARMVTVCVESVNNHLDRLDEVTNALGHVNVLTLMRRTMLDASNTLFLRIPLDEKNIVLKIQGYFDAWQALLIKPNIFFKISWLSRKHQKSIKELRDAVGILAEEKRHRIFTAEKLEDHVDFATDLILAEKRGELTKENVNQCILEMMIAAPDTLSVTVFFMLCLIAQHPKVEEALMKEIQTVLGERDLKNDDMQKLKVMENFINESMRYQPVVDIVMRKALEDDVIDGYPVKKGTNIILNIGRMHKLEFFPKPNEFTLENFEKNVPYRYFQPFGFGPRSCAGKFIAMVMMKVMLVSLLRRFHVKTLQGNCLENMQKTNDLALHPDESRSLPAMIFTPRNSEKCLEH
The target in data set [3] is T1, aromatase (microsomes from the human placenta) (Homo sapiens, UniProt P11511).
T1 construct: using microsomes from the human placenta as source of the enzyme; from tissue; host or cells: human placenta microsomes
T1 sequence (P11511 1-503): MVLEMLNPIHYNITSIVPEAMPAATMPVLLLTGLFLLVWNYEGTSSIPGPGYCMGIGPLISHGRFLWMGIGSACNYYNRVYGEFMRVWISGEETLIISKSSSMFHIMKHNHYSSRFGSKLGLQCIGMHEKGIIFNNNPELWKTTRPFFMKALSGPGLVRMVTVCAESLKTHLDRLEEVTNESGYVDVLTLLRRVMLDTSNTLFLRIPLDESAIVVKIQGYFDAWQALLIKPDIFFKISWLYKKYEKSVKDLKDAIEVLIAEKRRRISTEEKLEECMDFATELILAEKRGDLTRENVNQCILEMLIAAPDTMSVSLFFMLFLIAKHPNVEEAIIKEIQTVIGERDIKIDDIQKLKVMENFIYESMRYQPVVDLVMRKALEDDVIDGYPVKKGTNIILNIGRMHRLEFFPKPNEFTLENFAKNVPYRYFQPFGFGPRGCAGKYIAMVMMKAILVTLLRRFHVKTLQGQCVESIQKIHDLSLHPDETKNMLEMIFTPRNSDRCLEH
In words: Aromatase inhibition in vitro, tritiated water method, human placenta microsomes. The class given is biochemical.

[4] abbreviates: value marked (h), read-out: Activity In vitro IC50(nM), (h).
[5] abbreviates: value without (h)/(e) mark, read-out: Activity In vitro IC50.

Structures are written as SMILES. Read-outs that look alike come from different tables or passages of the source.

Take `Cn1c(=O)oc2cc(C(c3cccc(C#N)c3)n3ccnc3)ccc21` (stereo not shown) [PC122]: in data set [1], the inhibition in vivo at 0.01 mg/kg was 39%, the inhibition in vivo at 0.1 mg/kg was 58% and the inhibition in vivo at 1 mg/kg turned out to be 92%. In addition, the IC50 in data set [2] turned out to be 23.2 nM. The IC50 in data set [3] (setting [4]) amounted to 18.6 nM.

Turning to `CCn1c(=O)[se]c2cc(C(c3ccc(C#N)cc3)n3cncn3)ccc21` (stereo not shown) [PC11303, 4-[(3-Ethyl-2-oxo-2,3-dihydro-1,3-benzoselenazol-6-yl)(1H-1,2,4-triazol-1-yl)methyl]benzonitrile], the melting point lay in the range of 95 to 98 °C. In data set [1], the inhibition in vivo at 0.001 mg/kg was 38%, the inhibition in vivo at 0.01 mg/kg came out at 60% and the inhibition in vivo at 0.1 mg/kg came to 71%. Also, the IC50 in data set [3] (setting [5]) was 3.99 nM.

For `CN1C(=O)COc2cc(C(c3ccccc3)n3ccnc3)ccc21` (stereo not shown) [PCH19, 4-Methyl-7-[1H-imidazol-1-yl(phenyl)methyl]-1,4-benzoxazin-3(4H)-one], the IC50 in data set [2] came to 59.9 nM; in data set [3] (setting [4]), 52.5 nM.

Regarding `Cn1c(=O)oc2cc(C(c3ccc(C#N)cc3)n3ccnc3)ccc21` (stereo not shown) [PCH27], the IC50 in data set [2] is 72 nM; in data set [3] (setting [4]) it was 4.62 nM.

Regarding `Cn1c(=O)oc2cc(C(c3ccncc3)n3ccnc3)ccc21` (stereo not shown) [PCH30], the IC50 was found to be 477 nM in data set [2] and 38 nM in data set [3] (setting [4]).

Turning to `Cn1c(=O)oc2ccc(C(c3ccccc3)n3ccnc3)cc21` (stereo not shown) [PCH31, 3-Methyl-5-[1H-imidazol-1-yl-(phenyl)methyl]-1,3-benzoxazol-2(3H)-one], the IC50 in data set [2] was 50.1 nM; in data set [3] (setting [4]), 46.6 nM.

Take `O=c1[nH]c2ccc(C(c3ccccc3)n3ccnc3)cc2s1` (stereo not shown) [PCH100, 6-[1H-Imidazol-1-yl(phenyl)methyl]-1,3-benzothiazol-2(3H)-one]: the IC50 in data set [2] is 34 nM; in data set [3] (setting [4]), 33.7 nM.

With `N#Cc1ccc(C(c2ccc3[nH]c(=O)oc3c2)n2ccnc2)cc1` (stereo not shown) [PCH113, 6-[(4-Cyanophenyl)(1H-imidazol-1-yl)methyl]-1,3-benzoxazol-2(3H)-one], in data set [1], the inhibition in vivo at 0.01 mg/kg was 19%, the inhibition in vivo at 0.1 mg/kg was 50% and the inhibition in vivo at 1 mg/kg was found to be 94%. Moreover, in data set [2], the IC50 came to 14.6 nM. Besides, the IC50 in data set [3] (setting [4]) was 13.2 nM.

For `Cn1c(=O)oc2cc(C(c3cccnc3)n3ccnc3)ccc21` (stereo not shown) [PCH116], the values for the IC50 in data set [2] and in data set [3] (setting [4]) were 34.6 nM and 33.7 nM, respectively.

`N#Cc1cccc(C(c2ccc3[nH]c(=O)oc3c2)n2ccnc2)c1` (stereo not shown) [PCH119]: the IC50 is 27.7 nM in data set [2] and 25.1 nM in data set [3] (setting [4]).

As for `O=c1[nH]c2cc(C(c3ccccc3)n3ccnc3)ccc2o1` (stereo not shown) [PCH124, 5-[1H-Imidazol-1-yl(phenyl)methyl]-1,3-benzoxazol-2(3H)-one], in data set [1], the inhibition in vivo at 0.01 mg/kg turned out to be 34%, the inhibition in vivo at 0.1 mg/kg was 71% and the inhibition in vivo at 1 mg/kg worked out at 92%. Also, the IC50 in data set [2] came to 14.1 nM. Besides, in data set [3] (setting [4]), the IC50 is 14.9 nM.

`Cn1c(=O)sc2ccc(C(c3ccc(C#N)cc3)n3cncn3)cc21` (stereo not shown) [PCH163, 4-[(3-Methyl-2-oxo-2,3-dihydro-1,3-benzothiazol-5-yl)(1H-1,2,4-triazol-1-yl)methyl]benzonitrile]: the melting point is 122 to 125 °C. Also, in data set [1], the inhibition in vivo at 0.001 mg/kg came out at 57%, the inhibition in vivo at 0.01 mg/kg amounted to 83% and the inhibition in vivo at 0.1 mg/kg came out at 95%. The IC50 in data set [3] (setting [5]) was 5.78 nM.

In the case of `Cn1c(=O)[se]c2cc(C(c3ccc([N+](=O)[O-])cc3)n3cncn3)ccc21` (stereo not shown) [PCH304, 3-Methyl-6-[(4-nitrophenyl)(1H-1,2,4-triazol-1-yl)methyl]-1,3-benzoselenazol-2(3H)-one], the melting point was in the range of 190 to 195 °C. In data set [3] (setting [5]), the IC50 was 3.64 nM.

`CCn1c(=O)[se]c2cc(C(c3ccc([N+](=O)[O-])cc3)n3cncn3)ccc21` (stereo not shown) [PCH305, 3-Ethyl-6-[(4-nitrophenyl)(1H-1,2,4-triazol-1-yl)methyl]-1,3-benzoselenazol-2(3H)-one] came in with a melting point of 79 to 82 °C. In addition, the IC50 in data set [3] (setting [5]) was found to be 3.7 nM.
